The experiment deals with MAT2A (Homo sapiens, UniProt P31153). In words: MAT2A Biochemical Assay. As to conditions: 1 uM start, 3-fold dilution, 10 doses; Biomol Green, O.D.620; read-out: MAT2A enzymatic IC50. On the procedure:
Example A: MAT2A Biochemical Assay
Compounds described herein were tested as follows:
(1). Prepared 1× Assay buffer.
(2). Preparation of compound concentration gradient: the compounds test condition were 1 uM start, 3-fold dilution, 10 doses, singlet or duplicate. 100× concentration compounds were prepared in 384-well plate. Then used Echo 550 to transfer 250 nl to a 384-reaction plate for later use. Added 250 nl of 100% DMSO to the negative and positive control wells.
(3). Prepared 1.67× final concentration enzyme solution with 1× Assay buffer.
(4). Added 15 μl of 1.67× Enzyme solution to the compound wells and positive control wells; added 15 μl of 1× Assay buffer to the negative control wells.
(5). Centrifuged at 1000 rpm for 30 seconds and incubate for 15 minutes.
(6). Prepared 2.5× final concentration Substrate mix solution with 1× Assay buffer.
(7). Added 10 μl of 2.5× final concentration Substrate mix solution to start the reaction.
(8). Centrifuged at 1000 rpm for 30 seconds and incubate for 150 minutes.
(9). Added 50 μl Biomol Green to stop the reaction, centrifuge at 1000 rpm for 30 seconds and incubate for 15 minutes, read O.D.620, process data.
(1) Using GraphPad Prism 5.
(2) % Inh=(Max signal−Compound signal)/(Max signal−Min signal)*100.
(3) Max signal was obtained from the positive control wells.
(4) Min signal was obtained from the negative control wells.
Sequence of MAT2A (P31153 whole entry, species assumed): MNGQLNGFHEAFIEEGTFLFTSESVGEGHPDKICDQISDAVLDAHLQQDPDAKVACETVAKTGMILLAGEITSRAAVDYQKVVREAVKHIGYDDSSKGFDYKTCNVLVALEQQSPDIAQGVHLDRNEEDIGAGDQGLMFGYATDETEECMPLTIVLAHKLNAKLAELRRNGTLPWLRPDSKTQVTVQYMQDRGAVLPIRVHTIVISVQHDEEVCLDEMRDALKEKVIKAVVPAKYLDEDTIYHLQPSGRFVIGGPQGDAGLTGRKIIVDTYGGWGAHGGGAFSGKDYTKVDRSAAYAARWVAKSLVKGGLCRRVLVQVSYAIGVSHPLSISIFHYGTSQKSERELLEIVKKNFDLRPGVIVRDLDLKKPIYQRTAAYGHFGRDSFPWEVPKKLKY
For orientation: IC50 means the point on the concentration scale where inhibition reaches its midpoint. As for `CN(C)CC#CCNc1nc(=O)n(-c2cccnc2)c2cc(Cl)ccc12` [Example 3, 7-chloro-4-((4-(dimethylamino)but-2-yn-1-yl)amino)-1-(pyridin-3-yl)quinazolin-2(1H)-one], the 50% inhibitory concentration (IC50) was 50 to 100 nM.

Regarding `C#CCOc1nc(=O)n(-c2cccnc2)c2cc(Cl)ccc12` [Example 9, 7-chloro-4-(prop-2-yn-1-yloxy)-1-(pyridin-3-yl)quinazolin-2(1H)-one], the 50% inhibitory concentration (IC50) is 100 to 500 nM.

Consider `C#CC1CCCN(c2nc(=O)n(-c3ccccc3Cl)c3cc(Cl)ccc23)C1` (stereo not drawn) [Example 11, 7-chloro-1-(2-chlorophenyl)-4-(3-ethynylpiperidin-1-yl)quinazolin-2(1H)-one], for which the half-inhibitory concentration (IC50) lay within 100 to 500 nM.

On to `C#CC1(O)CN(c2nc(=O)n(-c3ccccc3Cl)c3cc(Cl)ccc23)C1` [Example 12, 7-chloro-1-(2-chlorophenyl)-4-(3-ethynyl-3-hydroxyazetidin-1-yl)quinazolin-2(1H)-one], for which the concentration for half-maximal inhibition (IC50) was 100 to 500 nM.

`C#CCNc1nc(=O)n(-c2cnccn2)c2cc(C(F)(F)F)cc(F)c12` [Example 32, 5-fluoro-4-(prop-2-yn-1-ylamino)-1-(pyrazin-2-yl)-7-(trifluoromethyl)quinazolin-2(1H)-one]: the 50% inhibitory concentration (IC50) fell in the range of 50 to 100 nM.

For `C#CCNc1nc(=O)n(-c2cccnc2)c2cc(C(F)(F)F)cc(OC(F)F)c12` [Example 39, 5-(difluoromethoxy)-4-(prop-2-yn-1-ylamino)-1-(pyridin-3-yl)-7-(trifluoromethyl)quinazolin-2(1H)-one], the IC50 was 50 to 100 nM.

As for `C#CC1(Nc2nc(=O)n(-c3cccnc3C)c3cc(C(F)(F)F)cc(OC(F)F)c23)CC1` [Example 41, 5-(difluoromethoxy)-4-((1-ethynylcyclopropyl)amino)-1-(2-methylpyridin-3-yl)-7-(trifluoromethyl)quinazolin-2(1H)-one], the IC50 lay in the range of 50 to 100 nM.

Regarding `C#CC1(Nc2nc(=O)n(-c3cccnc3C)c3nc(C(F)(F)F)cc(OC)c23)CC1` [Example 43, 4-((1-ethynylcyclopropyl)amino)-5-methoxy-1-(2-methylpyridin-3-yl)-7-(trifluoromethyl)pyrido[2,3-d]pyrimidin-2(1H)-one], the concentration for half-maximal inhibition (IC50) was 50 to 100 nM.

Turning to `C#CCNc1nc(=O)n(-c2cc(C)cnc2C)c2cc(C(F)(F)F)ccc12` [Example 44, 1-(2,5-dimethylpyridin-3-yl)-4-(prop-2-yn-1-ylamino)-7-(trifluoromethyl)quinazolin-2(1H)-one], the IC50 is 100 to 500 nM.

For the molecule `C#CCNc1nc(=O)n(-c2cccnc2)c2cc(C(F)(F)F)cnc12` [Example 55, 4-(prop-2-yn-1-ylamino)-1-(pyridin-3-yl)-7-(trifluoromethyl)pyrido[3,2-d]pyrimidin-2(1H)-one], the half-inhibitory concentration (IC50) fell in the range of 500 to 1000 nM.

Regarding `C#CCNc1nc(=O)n(-c2cccnc2)c2cc(C(F)(F)F)ncc12` [Example 58, 4-(prop-2-yn-1-ylamino)-1-(pyridin-3-yl)-7-(trifluoromethyl)pyrido[4,3-d]pyrimidin-2(1H)-one], the concentration for half-maximal inhibition (IC50) lay in the range of 100 to 500 nM.

As for `C#CC(C)Nc1nc(=O)n(-c2cccnc2)c2cc(C(F)(F)F)ncc12` (stereo not drawn) [Example 59, 4-(but-3-yn-2-ylamino)-1-(pyridin-3-yl)-7-(trifluoromethyl)pyrido[4,3-d]pyrimidin-2(1H)-one], the half-inhibitory concentration (IC50) lay in the range of 100 to 500 nM.

For `C#CC1(Nc2nc(=O)n(-c3cccnc3)c3cc(C(F)(F)F)ncc23)CC1` [Example 60, 4-((1-ethynylcyclopropyl)amino)-1-(pyridin-3-yl)-7-(trifluoromethyl)pyrido[4,3-d]pyrimidin-2(1H)-one], the concentration for half-maximal inhibition (IC50) lay within 100 to 500 nM.

On to `C#CC1(Nc2nc(=O)n(-c3cccnc3)c3nc(C(F)(F)F)ncc23)CC1` [Example 62, 4-((1-ethynylcyclopropyl)amino)-1-(pyridin-3-yl)-7-(trifluoromethyl)pyrimido[4,5-d]pyrimidin-2(1H)-one], for which the 50% inhibitory concentration (IC50) fell in the range of 50 to 100 nM.

As for `C#CCNc1nc(=O)n(-c2cncnc2)c2cc(Cl)ccc12` [Example 71, 7-chloro-4-(prop-2-yn-1-ylamino)-1-(pyrimidin-5-yl)quinazolin-2(1H)-one], the IC50 was in the range of 100 to 500 nM.

Take `C#CCNc1nc(=O)n(-c2cnn(C)c2)c2cc(C(F)(F)F)ccc12` [Example 72, 1-(1-methyl-1H-pyrazol-4-yl)-4-(prop-2-yn-1-ylamino)-7-(trifluoromethyl)quinazolin-2(1H)-one]: the IC50 was 100 to 500 nM.

Take `C=CC1(Nc2nc(=O)n(-c3cccnc3C)c3cc(C(F)(F)F)cc(OC)c23)CC1` [Example 78]: the IC50 fell in the range of 50 to 100 nM.

As for `NC/C=C/CNc1nc(=O)n(-c2cccnc2)c2cc(C(F)(F)F)ccc12` [Example 79, (E)-4-((4-aminobut-2-en-1-yl)amino)-1-(pyridin-3-yl)-7-(trifluoromethyl)quinazolin-2(1H)-one], the 50% inhibitory concentration (IC50) lay in the range of 100 to 500 nM.

(Values after patent US11999713B2, “Methionine adenosyltransferase 2a (MAT2A) inhibitors and uses thereof” (Insilico Medicine IP Limited, priority 2021, dated 2024).)
